The text below walks through data of article PMC12190659, “A Near-Infrared Fluorescent Probe for Specific Imaging of Lymph Node Metastases in Ovarian Cancer via Active Targeting of the Gonadotropin-Releasing Hormone Receptor” (Biomolecules, 2025).

“Also recorded” adds a separate entry of the source.

For series [1], the system named is lymphatic metastases in early-stage ovarian cancer. More on the design: method as in PMID 38006759. To be noted: compared with systematic lymphadenectomy; cited from earlier work. The source says: Lymph node metastases are commonly observed in advanced ovarian cancer and are associated with a poor survival rate. Systematic lymphadenectomy seems necessary to achieve complete tumor reduction. […] In a prospectively randomized, controlled trial of lymphadenectomy in patients with primary ovarian cancer (FIGO stage IIB through IV) with macroscopically complete resection and clinically negative lymph nodes (LION trial), systematic pelvic and p ...

For series [2], the system named is folate receptor alpha. The following applies: cited from earlier work. The source says: Real-time guidance provided by intraoperative fluorescence imaging helps improve the resection rate of tumors. Over the past two decades, researchers have attempted to develop tumor-specific fluorophores for intraoperatively detecting ovarian cancer. Pafolacianine (OTL38), a fluorescent tracer that targets folate receptor alpha, is the first FDA-approved agent for fluorescence-guided ovarian cancer surgery. In a phase III study (NCT03180307), additional cancer lesions were identified in 33% of patients with known or suspected ovarian cancer who were scheduled to undergo cytored ...

Series [3] relates to subcutaneous A2780 ovarian cancer. The series is described as follows: Ex vivo fluorescence biodistribution, subcutaneous xenograft model. The series is classed as in vivo, BALB/c nude mice. As for the experimental part:
(§1) Mouse models with subcutaneous xenografts: A total of 5 × 10^6 A2780 cells were subcutaneously injected into the flanks of the mice. The tumors were allowed to grow until their diameter reached approximately 5 mm before treatment.
(§2) The tumor-bearing mice were injected with GnRHa-PEG-Rh760 at a dose of 2.0 mg/kg body weight (n = 3). PEG-Rh760 was used as a non-targeted control probe. The probes were formulated using phosphate buffered saline (PBS) solutions with a pH of 7.4. For mice with subcutaneous xenografts and lymph node metastasis, the probe was administered via tail vein injection. For mice with peritoneal metastasis, the probe was injected intraperitoneally into the lower right abdominal region. In vivo NIR fluorescence imaging (Ex/Em = 740 nm/790 nm) was performed at different time points post-injection via the IVIS Lumina K Imaging system (PerkinElmer, Waltham, USA). Moreover, tumors, lymph nodes, and major organs were immediately dissected from sacrificed mice and imaged under NIR fluorescence. The fluorescence signals were quantified as the average radiant efficiency ([p/s/cm^2/sr]/[μW/cm^2]) via Living Image software (version 4.5, PerkinElmer, Waltham, USA).
Figure S1 Mass spectra of GnRHa-PEG-Rh760 (A) and PEG-Rh760 (B).
Figure S2 Biodistribution of GnRHa-PEG-Rh760 in mice bearing subcutaneous A2780 ovarian tumors. The mice were injected with GnRHa-PEG-Rh760 via the tail vein and monitored for 120 h. The fluorescence intensities of the ex vivo tumors and organs were measured (n=3). […]

Series [4] has as its system peritoneal metastatic A2780-luciferase ovarian cancer. The series can be described thus: In vivo and ex vivo NIR fluorescence imaging, peritoneal metastasis model. More on the design: species or system BALB/c nude mice. To be noted: 2.0 mg/kg, intraperitoneal injection, n = 3. As for the experimental part:
Mouse models with peritoneal metastasis: A total of 1 × 10^7 A2780-luciferase cells were injected into the abdominal cavities of the mice. The tumors were allowed to grow for 2 weeks and monitored via bioluminescence imaging using the IVIS Lumina K Imaging system (PerkinElmer, Waltham, USA).
as §2, with “For mice with peritoneal metastasis, the probe was injected intraperitoneally into the lower right abdominal region.” left out
To verify the specificity of the NIR fluorescence imaging of GnRHa-PEG-Rh760, bioluminescence imaging of A2780-luciferase and ES-2-luciferase tumor-bearing mice was performed via the IVIS Lumina K Imaging system (PerkinElmer, Waltham, USA). […]

Series [5] relates to subcutaneous A2780 (GnRHR-positive) ovarian cancer. The series is described as follows: In vivo NIR fluorescence imaging, subcutaneous xenograft model. More on the design: species or system BALB/c nude mice. The following applies: 2.0 mg/kg, tail vein, n = 3. As for the experimental part: as §1, §2
Series [6] in a line: UV-visible absorption and fluorescence emission spectra. The series is classed as physicochemical. The following applies: DMSO solution. On the procedure: The probe GnRHa-PEG-Rh760 was synthesized as shown in the scheme in Figure 1A. The NIR fluorophore Rh760 and its derivatives Rh760-PAZ and Rh760-GA were synthesized as previously reported. All probes were synthesized by Guoping Pharmaceutical (Hefei, China). Briefly, the sequence of the GnRHa peptide (D-2-Nal-D-4-Cl-Phe-D-3-Pal-Ser-Tyr-D-Cit-Leu-Arg-Pro-D-Ala-NH2) was prepared via the standard Fmoc solid-phase peptide synthesis method. After peptide chain coupling, piperidine was added, and the mixture was allowed to react for 20 min to remove Fmoc. Then, Fmoc-PEG2000-COOH and Rh760 were added in sequence and allowed to react until the resin test was colorless. The resin was washed with methanol and then shaken for 2 h with cutting fluid. The resulting reaction mixture was precipitated with ice-cold ether, yielding a blue–green solid. PEG-Rh760 without GnRHa peptide modification was synthesized as the control. The final products were evaluated by mass spectrometry (MS). The UV–visible absorption spectra were measured with a LAMBDA 750 spectrometer (PerkinElmer, Waltham, USA), and the fluorescence emission spectra were measured with a QuantaMaster 40 fluorospectrometer in DMSO solution.

Series [7] can be described thus: In vivo safety evaluation. The arrangement: species or system mice. To be noted: 2.0 mg/kg, tail vein, n = 3. On the procedure:
The mice were injected with GnRHa-PEG-Rh760 at a dose of 2.0 mg/kg body weight via the tail vein (n = 3). PEG-Rh760 and vehicle were used as controls. The body weights of the mice were continuously monitored. The mice were sacrificed after 6 days. Routine blood tests were conducted to assess red blood cells (RBCs), white blood cells (WBCs), and platelets (PLTs). Blood biochemistry tests were conducted to assess alanine transaminase (ALT), aspartate transaminase (AST), blood urea nitrogen (BUN), and creatinine (CREA) levels. Tissue sections from organs, including the heart, lung, liver, spleen, kidney, and muscle, were stained with hematoxylin and eosin (H&E) for histopathological analysis.

For series [8], the system named is lymph node metastases of ES-2-luciferase ovarian cancer. The series is described as follows: In vivo and ex vivo NIR fluorescence imaging, lymph node metastasis model. To be noted: 2.0 mg/kg, tail vein. More on the design: species or system BALB/c nude mice. On the procedure:
Mouse models with lymph node metastasis: A total of 2 × 10^6 ES-2-luciferase cells were injected into the unilateral footpads of the mice. The lymph node metastases were monitored via bioluminescence imaging. Spontaneous metastases to popliteal (PO) and inguinal (IN) lymph nodes as well as occasional metastases to iliac (IL) and sciatic (SC) lymph nodes were observed after 2–3 weeks of primary tumor growth. The lymph node tissues were confirmed by histological examination and immunohistochemical staining for CK7.
as §2
To verify the specificity of the NIR fluorescence imaging of GnRHa-PEG-Rh760, bioluminescence imaging of A2780-luciferase and ES-2-luciferase tumor-bearing mice was performed via the IVIS Lumina K Imaging system (PerkinElmer, Waltham, USA). The mice were injected with 150 mg/kg body weight D-luciferin (YEASEN Biotech, Shanghai, China) and imaged at 15 min post-injection. Moreover, tumors, lymph nodes, and major organs were immediately dissected from sacrificed mice and imaged. Bioluminescence signals were quantified as the total flux (p/s) via Living Image software (version 4.5, PerkinElmer, Waltham, USA).

Series [9] has as its target T1, GnRHR (Homo sapiens, UniProt P30968).
T1 construct: mouse model bearing subcutaneous A2780 (GnRHR-positive) ovarian cancer; endogenous in cells; host or cells: A2780 and ES-2 human ovarian cancer cells grown as xenografts or lymph node metastases in BALB/c nude mice; frozen tissue sections
T1 sequence (P30968 1-328): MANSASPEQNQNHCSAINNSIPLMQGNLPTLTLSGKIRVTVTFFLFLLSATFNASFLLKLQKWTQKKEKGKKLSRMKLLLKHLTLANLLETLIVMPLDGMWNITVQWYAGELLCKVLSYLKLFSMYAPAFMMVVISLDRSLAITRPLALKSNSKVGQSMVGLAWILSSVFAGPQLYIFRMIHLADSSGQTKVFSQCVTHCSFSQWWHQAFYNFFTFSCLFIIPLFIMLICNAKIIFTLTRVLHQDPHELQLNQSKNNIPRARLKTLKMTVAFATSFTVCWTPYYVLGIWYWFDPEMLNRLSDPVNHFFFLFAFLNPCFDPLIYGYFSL
The series can be described thus: Confocal fluorescence microscopy of frozen tissue sections. It is filed as in vivo, BALB/c nude mice. The source says:
To examine the binding of probes to ovarian cancer tissues, tumors, lymph nodes and skeletal muscle were obtained from sacrificed mice and then embedded in frozen section embedding medium. The frozen tissues were sectioned, fixed and mounted. Nuclei were labeled with DAPI. Fluorescence images were captured via confocal fluorescence microscopy (TCS SP5, Leica, Wetzlar, Germany).

`CC1(C)C(/C=C/C=C/C=C/C=C2\N(CCCCS(=O)(=O)O)c3ccc4ccccc4c3C2(C)C)=[N+](CCCCS(=O)(=O)[O-])c2ccc3ccccc3c21` [indocyanine green]: the “detection rate of sentinel lymph node mapping” value in series [1] is reported as “low detection rate”.
In the case of `CC1(C)C(/C=C/C2=C(Oc3ccc(C[C@H](NC(=O)c4ccc(NCc5cnc6nc(N)[nH]c(=O)c6n5)cc4)C(=O)[O-])cc3)C(=C/C=C3\N(CCCCS(=O)(=O)[O-])c4ccc(S(=O)(=O)[O-])cc4C3(C)C)/CCC2)=[N+](CCCCS(=O)(=O)[O-])c2ccc(S(=O)(=O)[O-])cc21.[H+].[H+].[H+].[H+]` [pafolacianine, Pafolacianine], in series [2] (phase I to III studies), the false-positive lymph nodes result is given as “false-positive lymph nodes were also observed”. Besides, the “patients in whom additional cancer lesions were identified” value in series [2] (phase III study NCT03180307, versus white light assessment and palpation) is on record as 33%.
Turning to “D-2-Nal-D-4-Cl-Phe-D-3-Pal-Ser-Tyr-D-Cit-Leu-Arg-Pro-D-Ala-NH2 [GnRHa-PEG-Rh760, GnRHR-targeted NIR fluorescent probe: GnRH analog peptide conjugated with Rh760 fluorophore and polyethylene glycol (PEG)]”, the “NIR fluorescence in normal ovarian tissues” value in series [3] (ex vivo) was “weak NIR fluorescence”. Further, the “biodistribution (organs of accumulation)” value in series [3] (ex vivo fluorescence of tumors and organs, 2.0 mg/kg, tail vein, monitored for 120 h, n = 3) is “mainly accumulated in the tumor and liver tissues; also recorded: predominant accumulation in the tumor and liver, followed by the kidneys”. The “clearance of the probe” value in [3] (ex vivo fluorescence of tumors and organs, 2.0 mg/kg, tail vein, n = 3) is given as “gradually cleared at 96 h post-injection”. The “tumor-to-background (skeletal muscle) fluorescence ratio” value in series [3] (ex vivo, 2.0 mg/kg, tail vein, n = 3) was “high ratio of tumor-to-background”. The “NIR fluorescence signals in peritoneal metastases” value in series [4] is listed as “high fluorescent signals”. Moreover, the “NIR fluorescence in subcutaneous tumors” value in [5] (Ex/Em 740/790 nm) was “High fluorescence intensity”. Moreover, in series [5], the “duration of stronger fluorescence signals in tumors post-injection” value is reported as “up to 72 h”. Also, in series [6], the maximum absorption peak was found to be 780 nm and the maximum emission peak amounted to 805 nm. Further, in series [7] (6 days), the “body weight change versus control group” value is recorded as “No significant body weight loss”. In series [7] (after 6 days), the “hematologic analysis: RBC, WBC, PLT, ALT, AST, BUN, CREA levels” value is “no significant changes” and the “histopathology (H&E) of heart, lung, liver, spleen, kidney, muscle” value is on record as “No notable tissue injury”. In [8] (n = 3), the “NIR fluorescence in metastatic lymph nodes” value was “well identified and detected by NIR fluorescence”; the “NIR fluorescence in normal lymph nodes” value is “no NIR fluorescence signals were detected”. The “average fluorescence intensity in metastatic versus normal lymph nodes” value in [8] (n = 3, p < 0.05) was “significantly greater”. In addition, the “binding in tumor sections (versus skeletal muscle)” value in [9] (frozen sections from subcutaneous A2780 tumor-bearing mice injected with the probe) was “specific binding”. For the same compound, the “binding in metastatic lymph node sections” value in [9] (frozen sections of lymph nodes from ES-2-luciferase model) is “specific binding”.
